Values quoted from earlier work, collected in patent publication EP0268925B1, “Safened pesticidal resin compositions for controlling soil borne pests and process for the preparation thereof” (priority 1986, dated 1988).

Tests used:
rats = settings: technical material
[1] = inhalation hazard

CCOP(=S)(OCC)SCSCC [phorate, O,O-diethyl-S-(ethylthiomethyl)phosphorodithioate]
acute oral LD50 value in rats (rats): 1.6-3.7 mg technical/kg
inhalation LD50 [1]: 35 mg/kg body weight

CCOP(=S)(OCC)SCSC(C)(C)C [terbufos, O,O-diethyl S-[[(1,1-dimethylethyl)thio]methyl]phosphorodithioate]
acute oral LD50 value in rats (rats): 1.6 mg technical/kg
inhalation LD50 [1]: 35 mg/kg body weight
